Measured values published in ChEMBL document CHEMBL6153034, “Synthesis of dolutegravir derivatives modified by 1,2,3-triazole structure and their anti-inflammatory activity in LPS-induced BV2 cells” (Bioorg Med Chem Lett, 2025).

Columns and labels:
[1] = test system: BV-2; assay: Antiinflammatory activity in LPS induced mouse BV-2 cells assessed as NO production at 1 uM by Griess reagent based assay relative to control
[2] = Cytotoxicity against mouse BV-2 cells assessed as cell viability at 1 uM by MTT assay relative to control; format: toxicity, cell-based; details: read-out: Activity
[3] = Cytotoxicity against mouse BV-2 cells assessed as cell viability at 10 uM by MTT assay relative to control; format: toxicity, cell-based; details: read-out: Activity
[4] = test system: BV-2; assay: Antiinflammatory activity in LPS induced mouse BV-2 cells assessed as NO production at 10 uM by Griess reagent based assay relative to control

COc1c2n(cc(C(=O)Nc3ccc(-c4cn(-c5cccc(C(F)(F)F)c5)nn4)cc3)c1=O)C[C@@H]1OCC[C@@H](C)N1C2=O
level, % of control at 1 µM [1]: 96.8%
viability at 1 µM [2]: 105%
viability at 10 µM [3]: 73.8%
level, % of control at 10 µM [4]: 90.5%

COc1c2n(cc(C(=O)Nc3cccc(-c4cn(-c5cc(C(F)(F)F)ccc5C(F)(F)F)nn4)c3)c1=O)C[C@@H]1OCC[C@@H](C)N1C2=O
level, % of control at 1 µM [1]: 80.8%
viability at 1 µM [2]: 104%
viability at 10 µM [3]: 42%
level, % of control at 10 µM [4]: 43.6%

COc1c2n(cc(C(=O)Nc3ccc(-c4cn(-c5ccc(F)cc5)nn4)cc3)c1=O)C[C@@H]1OCC[C@@H](C)N1C2=O
level, % of control at 1 µM [1]: 91.9%
viability at 1 µM [2]: 103%
viability at 10 µM [3]: 73.3%
level, % of control at 10 µM [4]: 82.1%

COc1c2n(cc(C(=O)Nc3cccc(-c4cn(-c5ccccc5F)nn4)c3)c1=O)C[C@@H]1OCC[C@@H](C)N1C2=O
level, % of control at 1 µM [1]: 91.7%
viability at 1 µM [2]: 103%
viability at 10 µM [3]: 68.6%
level, % of control at 10 µM [4]: 53.7%

COc1ccccc1-n1cc(-c2ccc(NC(=O)c3cn4c(c(OC)c3=O)C(=O)N3[C@H](C)CCO[C@H]3C4)cc2)nn1
level, % of control at 1 µM [1]: 108%
viability at 1 µM [2]: 108%
viability at 10 µM [3]: 81.6%
level, % of control at 10 µM [4]: 107%

COc1c2n(cc(C(=O)Nc3cccc(-c4cn(-c5ccccc5F)nn4)c3)c1=O)C[C@H]1OC[C@H](C)N1C2=O
level, % of control at 1 µM [1]: 97.9%
viability at 1 µM [2]: 91.9%
viability at 10 µM [3]: 63.8%
level, % of control at 10 µM [4]: 88.7%

COc1c2n(cc(C(=O)Nc3cccc(-c4cn(-c5cc(C(F)(F)F)cc(C(F)(F)F)c5)nn4)c3)c1=O)C[C@@H]1OCC[C@@H](C)N1C2=O
level, % of control at 1 µM [1]: 81.6%
viability at 1 µM [2]: 108%
viability at 10 µM [3]: 71.3%
level, % of control at 10 µM [4]: 71.1%

COc1c2n(cc(C(=O)Nc3ccccc3-c3cn(-c4cc(C(F)(F)F)cc(C(F)(F)F)c4)nn3)c1=O)C[C@@H]1OCC[C@@H](C)N1C2=O
level, % of control at 1 µM [1]: 86.6%
viability at 1 µM [2]: 104%
viability at 10 µM [3]: 112%
level, % of control at 10 µM [4]: 73%

COc1c2n(cc(C(=O)Nc3ccc(-c4cn(-c5ccc(C(F)(F)F)cc5)nn4)cc3)c1=O)C[C@@H]1OCC[C@@H](C)N1C2=O
level, % of control at 1 µM [1]: 77.9%
viability at 1 µM [2]: 53.1%
viability at 10 µM [3]: 45.2%
level, % of control at 10 µM [4]: 76.2%

COc1c2n(cc(C(=O)Nc3ccccc3-c3cn(-c4c(C)cc(C)cc4C)nn3)c1=O)C[C@@H]1OCC[C@@H](C)N1C2=O
level, % of control at 1 µM [1]: 81.4%
viability at 1 µM [2]: 107%
viability at 10 µM [3]: 113%
level, % of control at 10 µM [4]: 59.1%

COc1c2n(cc(C(=O)Nc3ccc(-c4cn(-c5ccccc5Cl)nn4)cc3)c1=O)C[C@@H]1OCC[C@@H](C)N1C2=O
level, % of control at 1 µM [1]: 98.8%
viability at 1 µM [2]: 100%
viability at 10 µM [3]: 102%
level, % of control at 10 µM [4]: 79.6%

COc1c2n(cc(C(=O)Nc3ccc(-c4cn(-c5c(C)cc(C)cc5C)nn4)cc3)c1=O)C[C@@H]1OCC[C@@H](C)N1C2=O
level, % of control at 1 µM [1]: 98.9%
viability at 1 µM [2]: 106%
viability at 10 µM [3]: 114%
level, % of control at 10 µM [4]: 78.6%

COc1c2n(cc(C(=O)Nc3ccccc3-c3cn(-c4ccccc4I)nn3)c1=O)C[C@@H]1OCC[C@@H](C)N1C2=O
level, % of control at 1 µM [1]: 107%
viability at 1 µM [2]: 96.7%
viability at 10 µM [3]: 65.8%
level, % of control at 10 µM [4]: 56.3%

COc1c2n(cc(C(=O)Nc3ccc(-c4cn(-c5ccccc5F)nn4)cc3)c1=O)C[C@@H]1OCC[C@@H](C)N1C2=O
level, % of control at 1 µM [1]: 98.5%
viability at 1 µM [2]: 101%
viability at 10 µM [3]: 83%
level, % of control at 10 µM [4]: 87.2%

COc1c2n(cc(C(=O)Nc3cccc(-c4cn(-c5ccccc5)nn4)c3)c1=O)C[C@H]1OC[C@H](C)N1C2=O
level, % of control at 1 µM [1]: 127%
viability at 1 µM [2]: 111%
viability at 10 µM [3]: 65.6%
level, % of control at 10 µM [4]: 132%

COc1c2n(cc(C(=O)Nc3ccc(-c4cn(-c5cc(C(F)(F)F)ccc5C(F)(F)F)nn4)cc3)c1=O)C[C@@H]1OCC[C@@H](C)N1C2=O
level, % of control at 1 µM [1]: 83%
viability at 1 µM [2]: 108%
viability at 10 µM [3]: 109%
level, % of control at 10 µM [4]: 69%

COc1c2n(cc(C(=O)Nc3cccc(-c4cn(-c5cccc(C(F)(F)F)c5)nn4)c3)c1=O)C[C@H]1OC[C@H](C)N1C2=O
level, % of control at 1 µM [1]: 104%
viability at 1 µM [2]: 90.7%
viability at 10 µM [3]: 43.6%
level, % of control at 10 µM [4]: 78.4%

CCc1ccccc1-n1cc(-c2ccccc2NC(=O)c2cn3c(c(OC)c2=O)C(=O)N2[C@H](C)CCO[C@H]2C3)nn1
level, % of control at 1 µM [1]: 86.7%
viability at 1 µM [2]: 111%
viability at 10 µM [3]: 94.7%
level, % of control at 10 µM [4]: 76.3%

CCc1ccccc1-n1cc(-c2cccc(NC(=O)c3cn4c(c(OC)c3=O)C(=O)N3[C@@H](C)CO[C@@H]3C4)c2)nn1
level, % of control at 1 µM [1]: 107%
viability at 1 µM [2]: 99.3%
viability at 10 µM [3]: 46.1%
level, % of control at 10 µM [4]: 102%

COc1c2n(cc(C(=O)Nc3ccc(-c4cn(-c5cc(C(F)(F)F)cc(C(F)(F)F)c5)nn4)cc3)c1=O)C[C@@H]1OCC[C@@H](C)N1C2=O
level, % of control at 1 µM [1]: 105%
viability at 1 µM [2]: 105%
viability at 10 µM [3]: 71.1%
level, % of control at 10 µM [4]: 99.6%

COc1c2n(cc(C(=O)Nc3cccc(-c4cn(-c5ccccc5I)nn4)c3)c1=O)C[C@H]1OC[C@H](C)N1C2=O
level, % of control at 1 µM [1]: 143%
viability at 1 µM [2]: 99.8%
viability at 10 µM [3]: 48.7%
level, % of control at 10 µM [4]: 120%

COc1ccccc1-n1cc(-c2ccccc2NC(=O)c2cn3c(c(OC)c2=O)C(=O)N2[C@H](C)CCO[C@H]2C3)nn1
level, % of control at 1 µM [1]: 87.1%
viability at 1 µM [2]: 102%
viability at 10 µM [3]: 93.5%
level, % of control at 10 µM [4]: 70.3%

CCc1ccccc1-n1cc(-c2cccc(NC(=O)c3cn4c(c(OC)c3=O)C(=O)N3[C@H](C)CCO[C@H]3C4)c2)nn1
level, % of control at 1 µM [1]: 94.5%
viability at 1 µM [2]: 101%
viability at 10 µM [3]: 49.8%
level, % of control at 10 µM [4]: 59.9%

C[C@@H]1CCO[C@H]2Cn3cc(C(=O)NCc4ccc(F)cc4F)c(=O)c(O)c3C(=O)N12 [DOLUTEGRAVIR]
level, % of control at 1 µM [1]: 96%
viability at 1 µM [2]: 97.5%
viability at 10 µM [3]: 77.6%
level, % of control at 10 µM [4]: 51.2%

COc1c2n(cc(C(=O)Nc3ccccc3-c3cn(-c4ccccc4Cl)nn3)c1=O)C[C@@H]1OCC[C@@H](C)N1C2=O
level, % of control at 1 µM [1]: 92.4%
viability at 1 µM [2]: 97.9%
viability at 10 µM [3]: 98.3%
level, % of control at 10 µM [4]: 65.9%

COc1c2n(cc(C(=O)Nc3cccc(-c4cn(-c5ccccc5C(F)(F)F)nn4)c3)c1=O)C[C@@H]1OCC[C@@H](C)N1C2=O
level, % of control at 1 µM [1]: 91.5%
viability at 1 µM [2]: 60.6%
viability at 10 µM [3]: 22.8%
level, % of control at 10 µM [4]: 3.88%

COc1c2n(cc(C(=O)Nc3cccc(-c4cn(-c5ccccc5)nn4)c3)c1=O)C[C@@H]1OCC[C@@H](C)N1C2=O
level, % of control at 1 µM [1]: 78.6%
viability at 1 µM [2]: 104%
viability at 10 µM [3]: 62.3%
level, % of control at 10 µM [4]: 77.3%

COc1c2n(cc(C(=O)Nc3cccc(-c4cn(-c5ccc(F)cc5)nn4)c3)c1=O)C[C@H]1OC[C@H](C)N1C2=O
level, % of control at 1 µM [1]: 129%
viability at 1 µM [2]: 109%
viability at 10 µM [3]: 68%
level, % of control at 10 µM [4]: 120%

COc1c2n(cc(C(=O)Nc3cccc(-c4cn(-c5cccc(C(F)(F)F)c5)nn4)c3)c1=O)C[C@@H]1OCC[C@@H](C)N1C2=O
level, % of control at 1 µM [1]: 99.2%
viability at 1 µM [2]: 47.1%
viability at 10 µM [3]: 16.2%
level, % of control at 10 µM [4]: 2.3%

C[C@@H]1C[C@H]2[C@@H]3CCC4=CC(=O)C=C[C@]4(C)[C@@]3(F)[C@@H](O)C[C@]2(C)[C@@]1(O)C(=O)CO [DEXAMETHASONE]
level, % of control at 10 µM [4]: 65%

COc1c2n(cc(C(=O)Nc3cccc(-c4cn(-c5c(C)cc(C)cc5C)nn4)c3)c1=O)C[C@H]1OC[C@H](C)N1C2=O
level, % of control at 1 µM [1]: 116%
viability at 1 µM [2]: 94.6%
viability at 10 µM [3]: 49.3%
level, % of control at 10 µM [4]: 89.6%

COc1c2n(cc(C(=O)Nc3cccc(-c4cn(-c5ccc(F)cc5)nn4)c3)c1=O)C[C@@H]1OCC[C@@H](C)N1C2=O
level, % of control at 1 µM [1]: 76.6%
viability at 1 µM [2]: 111%
viability at 10 µM [3]: 69.2%
level, % of control at 10 µM [4]: 77%

COc1c2n(cc(C(=O)Nc3cccc(-c4cn(-c5ccccc5Cl)nn4)c3)c1=O)C[C@H]1OC[C@H](C)N1C2=O
level, % of control at 1 µM [1]: 106%
viability at 1 µM [2]: 90.7%
viability at 10 µM [3]: 43.6%
level, % of control at 10 µM [4]: 59.4%

COc1c2n(cc(C(=O)Nc3ccccc3-c3cn(-c4ccc(C(F)(F)F)cc4)nn3)c1=O)C[C@@H]1OCC[C@@H](C)N1C2=O
level, % of control at 1 µM [1]: 81%
viability at 1 µM [2]: 104%
viability at 10 µM [3]: 96.3%
level, % of control at 10 µM [4]: 84.7%

COc1c2n(cc(C(=O)Nc3cccc(-c4cn(-c5cc(C(F)(F)F)ccc5C(F)(F)F)nn4)c3)c1=O)C[C@H]1OC[C@H](C)N1C2=O
level, % of control at 1 µM [1]: 118%
viability at 1 µM [2]: 91.9%
viability at 10 µM [3]: 71.1%
level, % of control at 10 µM [4]: 109%

COc1c2n(cc(C(=O)Nc3ccccc3-c3cn(-c4ccccc4F)nn3)c1=O)C[C@@H]1OCC[C@@H](C)N1C2=O
level, % of control at 1 µM [1]: 86.8%
viability at 1 µM [2]: 100%
viability at 10 µM [3]: 98.5%
level, % of control at 10 µM [4]: 78.7%

COc1c2n(cc(C(=O)Nc3ccc(-c4cn(-c5ccccc5I)nn4)cc3)c1=O)C[C@@H]1OCC[C@@H](C)N1C2=O
level, % of control at 1 µM [1]: 98.2%
viability at 1 µM [2]: 110%
viability at 10 µM [3]: 98.2%
level, % of control at 10 µM [4]: 106%

COc1c2n(cc(C(=O)Nc3ccc(-c4cn(-c5ccccc5)nn4)cc3)c1=O)C[C@@H]1OCC[C@@H](C)N1C2=O
level, % of control at 1 µM [1]: 88.8%
viability at 1 µM [2]: 104%
viability at 10 µM [3]: 70.2%
level, % of control at 10 µM [4]: 91.4%
